Values of other authors, collected in patent publication US10143639B2, “Use of adelmidrol and other topical or oral cannabinomimetic or aliamide mast cell inhibitors to treat dermatoheliosis, seborrheic keratoses, and androgenetic alopecia” (priority 2017, dated 2018).

Experiments:
hair growth in mice = settings: applied to the skin of mice
AGA patients = settings: share of treated AGA patients improving
AGA scalp = settings: topical application, especially in subjects already taking finasteride

## CCCCCCCCCCCCCCCC(=O)NCCO [PEA, palmitoylethanolamide]
NGF
  pro-inflammatory effects of NGF: turned off the pro-inflammatory effects of NGF

## CCCCC[C@H](O)/C=C/[C@H]1C(=O)C[C@H](O)[C@@H]1C/C=C\CCCC(=O)O [PGD2, Prostaglandin D2]
Hair growth in mice
  hair growth: stopped hair growth

## CC(C)(C)NC(=O)[C@H]1CC[C@H]2[C@@H]3CC[C@H]4NC(=O)C=C[C@]4(C)[C@H]3CC[C@]12C [finasteride]
AGA patients
  clinical improvement in treated AGA patients: 50-60%

## CCCCC/C=C\C/C=C\CCCCCCCC(=O)O [linoleic acid]
AGA scalp
  hair growth: improved hair growth
